Measurements reported in patent publication US6544971B1, “Method of increasing alertness by administration of a vomeropherin, and vomeropherin-emitting alarm devices” (Pherin Pharmaceuticals, Inc., priority 2000, dated 2003).

Columns and labels:
Type in all cases: in vivo
Human Subjects [1] = test: Subjective in-session self-evaluation at half-hour intervals (questionnaire and 3 item analog sleepiness scale); settings: for Self-Perception of Sleepiness, score on sleepiness scale inventory: scale 0 to 10, higher numbers more sleepiness
Experimental: Immediately prior to “lights out”, subjects were asked to lie in a supine position. The MVA was positioned in the right nostril, with its nozzle directed toward the right VNO opening. Later, the MVA was positioned in the left nostril for stimulation of the left VNO. Two pulses of air or the test compound or placebo were administered to each VNO. The same procedure was repeated 30 minutes later, at which times the investigator would enter the room and wake the subject if they were asleep, so that the total dose of the vomeropherin being administered to each subject was 800 pg.
At each 30 minute sleep interruption, prior to the test compound application, each subject was given a short questionnaire to record their perception of whether they were asleep, estimated time spent awake, and number of awakenings. In addition, sleepiness was measured by a 3 item analog scale inventory (scored from 0 to 10, higher numbers indicating more sleepiness) that included: a) readiness to get back to sleep; b) degree of anxiety and c) self rated level of sleepiness. […] Recordings began at 10:00 p.m. and lasted until 6:00 a.m. of the following day. Frontal, parietal and occipital electroencephalograms (EEG), electrooculograms, and electromyograms were recorded during the first hour. These recordings were coded and scored blind for non-rapid eye movement sleep latency from “lights out” to the appearance of the first minute of Stage 1 sleep, total wake time, wake time after sleep onset, and total sleep time. Sleep stages were assigned according to the criteria of Rechtschaffen and Kales (1968). All variables were scored separately for each 30-minute interval. Number of awakenings was tallied for the entire hour of recording.

Human Subjects [2] = test: Cognitive and motor performance tests before sleep and in the morning (maze, digit-symbol substitution, dot test, number repetition); settings: night versus morning tests
From the text: During the study, subjects spent one night in the sleep laboratory and underwent conventional polysomnography (PSG) only, during the first hour. The criteria for this short recording was based on previous findings showing that single dose VNO stimulation with the vomeropherins induced effects within one hour after stimulation. Before starting the recordings, each subject was questioned regarding distressing or extenuating events during that day that could contribute to sleep disruption. Times of last meal and physical exercise (if applicable) were also recorded. In order to determine whether the compound would affect daytime activities, or anterograde memory, judgment and motor skills were also evaluated both before going to sleep and in the morning. […]
In the morning, all subjects completed a multiple-choice questionnaire regarding the following variables: sleep latency after last entry, estimated time sleeping, number of awakenings, and quality of sleep. General status at waking time was determined by marking on a 9 item analog scale inventory. […]

Human Subjects [3] = test: Morning multiple-choice questionnaire and analog scale (sleep latency, duration, quality, status at waking)
Experimental: In the morning, all subjects completed a multiple-choice questionnaire regarding the following variables: sleep latency after last entry, estimated time sleeping, number of awakenings, and quality of sleep. General status at waking time was determined by marking on a 9 item analog scale inventory. In addition, all subjects were administered cognitive and motor performance tests identical to those received before bedtime.

Human Subjects [4] = test: Sleep study by polysomnography (PSG) after VNO stimulation, randomized single-blind placebo-controlled; settings: for Overall effect on sleep and arousal: conclusion from PSG and self-reports
Experimental: Three methods were used to assess sleep: 1) sleep study, 2) quantitative electroencephalography, and 3) psychometric tests. The study was carried out using a randomized, single-blind, placebo-controlled experimental design.
Screening was performed several days prior to the study session via clinical interviews and examination. Additionally, Hamilton A and D, and Covy tests were administered to determine concomitant anxiety or affective disorders. A thorough questionnaire regarding sleep habits and sleep pathologies was also administered to each subject. Criteria for inclusion in the study included subjects with a score of 12 or less on the Covy test and a score of 8 or less on the Hamilton A and Hamilton D tests, and absence of any medical or psychiatric conditions. Ten physically and mentally healthy young male adult subjects were selected for the study. All of them Were normal sleepers (i.e., they reported no difficulty in falling or remaining asleep at night, slept between 6 and 8.5 hours per night, and were alert during the daytime).
On the day of the study, they were instructed to refrain from napping, to avoid consuming alcohol or caffeine containing beverages, and to maintain a uniform daily level of activity. The ten subjects were divided into two groups of five, with the test compound being administered to one group and the other acting as a control.
The test compound was administered to the VNO using a manual vomeronasal applicator (MVA). This applicator comprises an air supply, delivering a 1 ml pulse of air; a valve system passing that pulse of air either through a chamber containing 30 mg of USP cotton that has been previously soaked with 1 ml of a 1 mg/ml solution of the test compound, estra-1,3,5(10),16-tetraen-3-yl acetate, in ethanol and allowed to dry overnight, or bypassing that chamber; a one-way flow valve; and a nozzle capable of being positioned in a nostril to provide direct administration to the lumen of the VNO. With a 1 ml air pulse, the MVA delivers 200 pg of the test compound to the VNO.
During the study, subjects spent one night in the sleep laboratory and underwent conventional polysomnography (PSG) only, during the first hour. The criteria for this short recording was based on previous findings showing that single dose VNO stimulation with the vomeropherins induced effects within one hour after stimulation. Before starting the recordings, each subject was questioned regarding distressing or extenuating events during that day that could contribute to sleep disruption. Times of last meal and physical exercise (if applicable) were also recorded. In order to determine whether the compound would affect daytime activities, or anterograde memory, judgment and motor skills were also evaluated both before going to sleep and in the morning. For this purpose, subjects were administered a maze test, a digit-symbol substitution test, a right and left manual coordination test (dot test), and a number repetition test as described in a previous publication (Monti, J. M., 1989, Slow Wave Sleep in Health and Disease. In: Waukier A., Dugovic C. and Radulovacki M. “Slow Wave Sleep.” New York, Raven Press. pp. […]).
Immediately prior to “lights out”, subjects were asked to lie in a supine position. The MVA was positioned in the right nostril, with its nozzle directed toward the right VNO opening. Later, the MVA was positioned in the left nostril for stimulation of the left VNO. […]

[5] = morning questionnaire, latency after last entry, 5 subjects per group
[6] = morning questionnaire, 5 subjects per group

Compound: CC(=O)Oc1ccc2c(c1)CC[C@@H]1[C@@H]2CC[C@]2(C)C=CC[C@@H]12 [Test Compound, estra-1,3,5(10),16-tetraen-3-yl acetate]
- Self-Perception of Sleepiness, score on sleepiness scale inventory (Human Subjects [1]; First entry (beginning study), placebo 7.5): 6.0
- Self-Perception of Sleepiness, score on sleepiness scale inventory (Human Subjects [1]; Second entry (60 min. int), after dosing, placebo 8.9): 3.2
- Self-reported number of awakenings (Human Subjects [1]; self-evaluation at half-hour intervals, control group none to more than three): three or more
- Effect on subject's self-perception of sleep (Human Subjects [1]; self-reports compared with PSG data): does not impair a subject's self-perception of sleep
- Change in scores for anterograde memory, judgment or motor dexterity (Human Subjects [2]): Neither the control nor the test group revealed any changes in scores
- Sleep quality (disturbed or undisturbed) (Human Subjects [3]; classified by subjects in the morning): one subject in the test group defined their sleep as “disturbed”
- Sleep Latencies <30 Minutes, number of subjects (Human Subjects [3]; [5]): 0 n
- Sleep Latencies >30 minutes, number of subjects (Human Subjects [3]; [5]): 5 n
- Sleep Duration 4-6 hours, number of subjects (Human Subjects [3]; [6]): 5
- Sleep Duration 7-8 hours, number of subjects (Human Subjects [3]; [6]): 0
- Reported sleep latency after VNO stimulation (Human Subjects [3]; morning quiz, control group shorter than 30 minutes): > 30 min
- Condition at morning waking (index and visual analog scale) (Human Subjects [3]; versus placebo): did not show any difference
- Overall effect on sleep and arousal (Human Subjects [4]): possible psychostimulant effect
- Overall effect on sleep and arousal (Human Subjects [4]; listed as estra-1,3,5(10),16-tetraen-3-yl acetate): primary arousing effect
- Sleep Onset Latency (SOL), Mean (Human Subjects [4]; healthy young male adults, 5 per group, test compound to VNO by MVA, total 800 pg, first hour PSG, control group 16): 21 min
- Wake Time after Sleep Onset, Mean (Human Subjects [4]; healthy young male adults, 5 per group, test compound to VNO by MVA, total 800 pg, first hour PSG, control group 17.7): 16.3 min
- Total Sleep Time (TST), Mean (Human Subjects [4]; healthy young male adults, 5 per group, test compound to VNO by MVA, total 800 pg, first hour PSG, control group 26.0): 14.3 min
